From patent US20100292231A1, “Indazole Compounds for Treating Inflammatory Disorders, Demyelinating Disorders and Cancers” (priority 2007, published 2010)
Where a chain is given by its changes, count along the chain named.

Experiments:
Test in all cases: MTS cellular proliferation assay
Type in all cases: cell-based
BaF3-D835Y = target: T1, BaF3-D835Y (Homo sapiens, UniProt P36888, D835Y, cells depend on it); details: 72 hour incubation, read-out: Growth inhibitory activity (in vivo EC50 nM)
T1 sequence (P36888 1-993 D835Y): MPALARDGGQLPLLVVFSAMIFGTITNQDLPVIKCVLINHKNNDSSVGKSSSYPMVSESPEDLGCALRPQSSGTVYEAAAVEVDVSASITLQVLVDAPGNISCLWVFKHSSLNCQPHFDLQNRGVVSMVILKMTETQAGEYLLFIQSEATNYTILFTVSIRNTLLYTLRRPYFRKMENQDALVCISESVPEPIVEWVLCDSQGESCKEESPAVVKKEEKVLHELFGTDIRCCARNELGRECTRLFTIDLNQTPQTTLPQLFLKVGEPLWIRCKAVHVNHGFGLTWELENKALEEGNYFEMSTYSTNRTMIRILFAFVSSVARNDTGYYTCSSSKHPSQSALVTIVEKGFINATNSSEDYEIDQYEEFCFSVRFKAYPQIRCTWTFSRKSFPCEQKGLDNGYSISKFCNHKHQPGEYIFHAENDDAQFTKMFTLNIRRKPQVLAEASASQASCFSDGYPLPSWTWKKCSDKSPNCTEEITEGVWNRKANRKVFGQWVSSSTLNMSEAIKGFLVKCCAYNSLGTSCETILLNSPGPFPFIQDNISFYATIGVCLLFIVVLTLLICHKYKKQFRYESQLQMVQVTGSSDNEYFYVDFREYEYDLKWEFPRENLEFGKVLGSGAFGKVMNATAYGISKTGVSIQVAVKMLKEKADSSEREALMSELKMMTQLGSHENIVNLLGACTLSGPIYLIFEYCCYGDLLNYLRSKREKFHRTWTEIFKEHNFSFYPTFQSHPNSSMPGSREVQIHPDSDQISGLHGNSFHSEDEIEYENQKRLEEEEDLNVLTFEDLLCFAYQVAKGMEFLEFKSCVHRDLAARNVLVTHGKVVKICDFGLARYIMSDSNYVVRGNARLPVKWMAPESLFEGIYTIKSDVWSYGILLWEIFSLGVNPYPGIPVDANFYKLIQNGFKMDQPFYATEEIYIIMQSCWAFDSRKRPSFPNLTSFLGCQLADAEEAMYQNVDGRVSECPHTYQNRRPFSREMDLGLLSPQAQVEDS
From the text: (§1) The viability of Flt3 expressing cells can be evaluated using a tetrazolium salt reduction cell-based assay. […] BaF3, both wild type and mutant, as well as transfected strains, MV4-11 and MOLM14 are well-characterized Flt3-dependent humanized or human cell lines which express active Flt3 receptors (see, Yee et al. Blood (2002)100 (8):2941-2949; Levis et al. (2002) 99(11): 3885-3891). These cell lines were used to determine the ability of the compounds provided herein to inhibit Flt3 in intact cells. In each case, and by methods known to those practiced in the art of cell culture, proliferation was measured after 72 hour incubation with the compounds provided herein using a standard MTS protocol (Promega Cat #5430 “Cell Titer 96 Aqueous Non-radioactive Cell Proliferation Assay”).
(§2) In general, cells were plated at 10,000-20,000 cells per well in DMEM medium with 0.5% serum. The compound plate was set up by aliquoting into column 1 of a 96 well 300 ul polypropylene plate, the negative control (DMSO), aliquoting into column 12 the positive control and titrating the test compound in serial dilutions into columns 2-1 l. An aliquot from each well of the compound plate was transferred to the plated cells and then incubated @ […] in 5% CO2. [00538] MTS tetrazolium compound (Owen's reagent) was thawed in a H2O bath. 20 μl of MTS tetrazolium was added to each well of optical plate and the cells were incubated @ 37° C. in 5% CO2 for 2 hours. The absorbance measured at 490 nm using a microplate reader.

BaF3-FLT3-WT + IL-3 = details: 72 hour incubation, read-out: Growth inhibitory activity (in vivo EC50 nM)
From the text: as §1, §2

BaF3-ITD = target: T2, BaF3-ITD (Homo sapiens, UniProt P36888, cells depend on it, form not given); details: 72 hour incubation, read-out: Growth inhibitory activity (in vivo EC50 nM)
T2 sequence (P36888 1-993): T1 sequence (P36888 1-993 D835Y) with Y835D
From the text: as §1, §2

MOLM14 = details: Homo sapiens, MOLM-14, 72 hour incubation, read-out: Growth inhibitory activity (in vivo EC50 nM)
From the text: as §1, §2

EC50 (BaF3-D835Y) [nM]	IC50 (BaF3-FLT3-WT + IL-3) [nM]	EC50 (BaF3-ITD) [nM]	EC50 (MOLM14) [nM]	SMILES
887	752	223		CN(C)CCCCCNc1ccc2ncn3c4ccc5[nH]ncc5c4c(=O)c1c23 [(III)]
723	> 2000	80	82	CN(C)c1ccc2ncn3c4ccc5[nH]ncc5c4c(=O)c1c23 [(IX)]
171	1390	74	84	CCN(CC)c1ccc2ncn3c4ccc5[nH]ncc5c4c(=O)c1c23 [(VI)]
158	356	36	60	CNc1ccc2ncn3c4ccc5[nH]ncc5c4c(=O)c1c23 [(VII)]
129	341	30	627	CCN(CC)CCNc1ccc2ncn3c4ccc5[nH]ncc5c4c(=O)c1c23 [(VIII)]
79	492	35	90	O=c1c2c(NCCCN3CCOCC3)ccc3ncn(c4ccc5[nH]ncc5c14)c32 [(X)]
13	6	20		CN(C)CCCNc1ccc2ncn3c4ccc5[nH]ncc5c4c(=O)c1c23 [Compound (IV)]
172	246	90	333	O=c1c2c(NCCN3CCOCC3)ccc3ncn(c4ccc5[nH]ncc5c14)c32 [Compound (V)]

SMILES	EC50 (BaF3-D835Y) [nM]	IC50 (BaF3-FLT3-WT + IL-3) [nM]	EC50 (BaF3-ITD) [nM]	EC50 (MOLM14) [nM]
CCN(CC)CCNc1ccc2ncn3c4ccc(O)cc4c(=O)c1c23 [Symadex, 5-(2-(diethylamino)ethylamino)-8-hydroxy-6H-imidazo[4,5,1-de]acridin-6-one, reference compound]	8.9	13.2	11.2	
